The structures appear in SMILES notation.

For one experiment, the target named is T1, TLR8 (Homo sapiens, UniProt Q9NR97).
T1 construct: Human peripheral blood mononuclear cells (PBMCs) consist of lymphocytes, monocytes and dendritic cells that express TLR7, TLR8 and TLR9; endogenous in cells; host or cells: cryopreserved human PBMCs from healthy donors
T1 sequence (Q9NR97 27-1041): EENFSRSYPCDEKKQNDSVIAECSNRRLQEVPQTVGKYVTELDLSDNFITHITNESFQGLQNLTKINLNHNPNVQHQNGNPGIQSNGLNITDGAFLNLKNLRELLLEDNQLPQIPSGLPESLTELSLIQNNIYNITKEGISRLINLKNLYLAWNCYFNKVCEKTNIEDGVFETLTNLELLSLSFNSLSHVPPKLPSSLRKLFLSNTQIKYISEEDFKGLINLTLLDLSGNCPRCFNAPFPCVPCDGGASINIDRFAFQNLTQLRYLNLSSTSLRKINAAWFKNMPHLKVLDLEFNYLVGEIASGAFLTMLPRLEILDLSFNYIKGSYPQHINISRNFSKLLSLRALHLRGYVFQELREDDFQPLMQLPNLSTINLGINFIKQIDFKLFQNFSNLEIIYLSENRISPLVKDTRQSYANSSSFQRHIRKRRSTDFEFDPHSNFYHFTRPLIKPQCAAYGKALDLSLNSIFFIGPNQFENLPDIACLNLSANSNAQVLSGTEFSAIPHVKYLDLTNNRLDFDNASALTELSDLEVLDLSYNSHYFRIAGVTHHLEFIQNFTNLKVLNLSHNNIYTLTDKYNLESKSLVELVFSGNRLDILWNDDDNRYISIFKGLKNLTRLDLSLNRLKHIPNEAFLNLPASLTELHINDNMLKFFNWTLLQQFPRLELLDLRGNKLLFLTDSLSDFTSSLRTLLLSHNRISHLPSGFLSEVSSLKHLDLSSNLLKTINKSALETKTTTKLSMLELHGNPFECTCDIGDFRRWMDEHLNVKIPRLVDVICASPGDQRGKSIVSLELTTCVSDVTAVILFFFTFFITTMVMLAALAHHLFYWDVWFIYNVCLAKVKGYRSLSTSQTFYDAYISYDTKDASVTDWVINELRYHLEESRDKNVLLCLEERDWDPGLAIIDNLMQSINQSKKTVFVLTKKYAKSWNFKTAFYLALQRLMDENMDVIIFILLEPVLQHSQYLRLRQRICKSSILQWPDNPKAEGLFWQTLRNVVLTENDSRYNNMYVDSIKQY
Nature of the experiment: TLR8 human PBMC cell-based assay (antagonist, Compound A stimulated cytokine release). The note with it: human PBMCs; TLR8 agonist Compound A 800 nM, 6 hours; cytokines (TNFa and IL 12p40) in supernatant; read-out: TLR-8 EC50. In short, it runs like this: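 Cryopreserved donor PBMCs (100,000/well, RPMI + 10% FBS) were preincubated 1 h with antagonist (10-point dose response, quadruplicate), then stimulated with Compound A (800 nM final) for 6 h at 37 °C. TNFa and IL-12p40 in supernatants were measured by electrochemiluminescence; sigmoidal fits gave EC50.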

The next experiment has as its target T2, TLR7 (Homo sapiens, UniProt Q9NYK1).
T2 construct: Human peripheral blood mononuclear cells (PBMCs) consist of lymphocytes, monocytes and dendritic cells that express TLR7, TLR8 and TLR9; endogenous in cells; host or cells: cryopreserved human PBMCs from healthy donors
T2 sequence (Q9NYK1 27-1049): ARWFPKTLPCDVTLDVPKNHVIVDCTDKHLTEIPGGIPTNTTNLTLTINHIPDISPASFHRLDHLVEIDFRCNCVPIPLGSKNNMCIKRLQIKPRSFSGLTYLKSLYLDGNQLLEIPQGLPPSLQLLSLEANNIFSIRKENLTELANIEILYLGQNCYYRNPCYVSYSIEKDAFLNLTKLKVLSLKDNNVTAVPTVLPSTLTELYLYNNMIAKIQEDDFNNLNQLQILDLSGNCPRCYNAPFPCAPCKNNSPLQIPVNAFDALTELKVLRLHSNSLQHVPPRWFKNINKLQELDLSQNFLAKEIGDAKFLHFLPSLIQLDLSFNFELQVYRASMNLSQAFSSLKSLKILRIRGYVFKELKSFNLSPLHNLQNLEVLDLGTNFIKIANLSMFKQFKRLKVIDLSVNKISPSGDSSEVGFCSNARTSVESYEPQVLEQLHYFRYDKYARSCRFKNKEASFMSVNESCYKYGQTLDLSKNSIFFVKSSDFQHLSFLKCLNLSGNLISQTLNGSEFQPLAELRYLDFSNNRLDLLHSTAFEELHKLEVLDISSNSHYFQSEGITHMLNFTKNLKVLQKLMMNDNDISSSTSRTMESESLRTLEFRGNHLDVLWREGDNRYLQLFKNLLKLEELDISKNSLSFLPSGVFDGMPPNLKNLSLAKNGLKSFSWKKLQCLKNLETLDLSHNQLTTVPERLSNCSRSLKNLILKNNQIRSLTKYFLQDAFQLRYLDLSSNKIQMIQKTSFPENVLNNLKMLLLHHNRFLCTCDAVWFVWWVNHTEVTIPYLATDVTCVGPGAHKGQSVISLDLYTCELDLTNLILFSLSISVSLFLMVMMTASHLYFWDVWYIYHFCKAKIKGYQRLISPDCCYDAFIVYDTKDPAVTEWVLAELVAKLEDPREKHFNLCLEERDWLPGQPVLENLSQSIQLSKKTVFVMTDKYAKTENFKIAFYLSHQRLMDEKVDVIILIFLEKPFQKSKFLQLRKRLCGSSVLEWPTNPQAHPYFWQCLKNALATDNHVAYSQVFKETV
Nature of the experiment: TLR7 human PBMC cell-based assay (antagonist, GS-986 stimulated cytokine release). The conditions noted are these: human PBMCs; TLR7 agonist GS-986 400 nM, 6 hours; cytokines (IL-6 and IFNα) in supernatant; read-out: TLR-7 EC50. A digest of the protocol: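 EC50 derived by sigmoidal fitting of IL-6 and IFNα levels, quantified by electrochemiluminescence in supernatants of human PBMCs given 400 nM GS-986 for 6 h. Cells (100,000/well in RPMI-1640, 10% FBS) had received test antagonist 1 h beforehand, 10 doses in quadruplicate, at 37 °C.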

By EC50 is commonly meant the concentration giving half of the maximal effect. For the molecule `Cc1cc(-c2[nH]c3cc(C4C5CCC4CN(CC(N)=O)C5)sc3c2C(C)C)cn2ncnc12` (centres unmarked) [Example 309, 2-(8-(6-isopropyl-5-(8-methyl-[1,2,4]triazolo[1,5-a]pyridin-6-yl)-4H-thieno[3,2-b]pyrrol-2-yl)-3-azabicyclo[3.2.1]octan-3-yl)acetamide], the EC50 on TLR8 came out at 17.1 nM; at TLR7, 0.95 nM.

For the origin of these results see patent publication US20240217990A1 (Gilead Sciences, Inc., priority 2021, published 2024).
